Experimental data taken from ChEMBL document CHEMBL4033769, “Simple Tetrahydroisoquinolines Are Potent and Selective Kappa Opioid Receptor Antagonists” (ACS Med Chem Lett, 2017).
The source made the active and inactive calls. The rule behind the calls is not given here.

Legend:
[1] = biological target: Kappa-type opioid receptor (Homo sapiens) (UniProt P41145); experiment: Agonist activity at human kappa-opioid receptor expressed in CHO cell membranes assessed as induction of [35S]GTPgammaS binding at 10 uM after 60 mins by scintillation counting method; type: functional
[2] = biological target: Delta-type opioid receptor (Homo sapiens) (UniProt P41143); experiment: Agonist activity at human delta-opioid receptor expressed in CHO cell membranes assessed as induction of [35S]GTPgammaS binding at 10 uM after 60 mins by scintillation counting method; type: functional
[3] = biological target: Mu-type opioid receptor (Homo sapiens) (UniProt P35372); experiment: Agonist activity at human mu-opioid receptor expressed in CHO cell membranes assessed as induction of [35S]GTPgammaS binding at 10 uM after 60 mins by scintillation counting method; type: functional
[4] = biological target: Delta-type opioid receptor (Homo sapiens) (UniProt P41143)
Description: Antagonist activity at human delta-opioid receptor expressed in CHO cell membranes assessed as inhibition of DPDPE agonist-induced [35S]GTPgammaS binding after 60 mins by scintillation counting method

Delta-type opioid receptor (Homo sapiens), sequence (P41143 whole entry): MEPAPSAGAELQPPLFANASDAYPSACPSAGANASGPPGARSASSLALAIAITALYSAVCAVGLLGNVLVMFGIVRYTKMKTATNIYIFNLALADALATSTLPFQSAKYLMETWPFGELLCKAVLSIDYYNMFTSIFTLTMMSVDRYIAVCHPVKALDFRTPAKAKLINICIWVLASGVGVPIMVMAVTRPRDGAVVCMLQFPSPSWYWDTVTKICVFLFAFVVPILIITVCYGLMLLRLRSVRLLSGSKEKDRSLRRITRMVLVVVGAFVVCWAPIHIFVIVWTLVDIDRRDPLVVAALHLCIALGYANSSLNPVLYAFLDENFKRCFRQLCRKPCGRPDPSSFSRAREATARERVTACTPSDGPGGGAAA
Mu-type opioid receptor (Homo sapiens), sequence (P35372 whole entry): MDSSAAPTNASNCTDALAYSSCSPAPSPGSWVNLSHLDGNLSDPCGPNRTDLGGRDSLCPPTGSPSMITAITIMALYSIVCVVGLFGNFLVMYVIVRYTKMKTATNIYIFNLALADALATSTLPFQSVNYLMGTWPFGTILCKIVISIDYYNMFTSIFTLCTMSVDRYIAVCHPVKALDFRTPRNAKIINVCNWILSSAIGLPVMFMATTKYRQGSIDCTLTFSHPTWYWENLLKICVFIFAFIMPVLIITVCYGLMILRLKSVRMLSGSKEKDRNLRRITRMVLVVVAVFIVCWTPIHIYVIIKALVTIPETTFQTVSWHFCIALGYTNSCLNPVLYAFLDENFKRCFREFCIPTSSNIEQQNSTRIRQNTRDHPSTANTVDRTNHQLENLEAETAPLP
Kappa-type opioid receptor (Homo sapiens), sequence (P41145 whole entry): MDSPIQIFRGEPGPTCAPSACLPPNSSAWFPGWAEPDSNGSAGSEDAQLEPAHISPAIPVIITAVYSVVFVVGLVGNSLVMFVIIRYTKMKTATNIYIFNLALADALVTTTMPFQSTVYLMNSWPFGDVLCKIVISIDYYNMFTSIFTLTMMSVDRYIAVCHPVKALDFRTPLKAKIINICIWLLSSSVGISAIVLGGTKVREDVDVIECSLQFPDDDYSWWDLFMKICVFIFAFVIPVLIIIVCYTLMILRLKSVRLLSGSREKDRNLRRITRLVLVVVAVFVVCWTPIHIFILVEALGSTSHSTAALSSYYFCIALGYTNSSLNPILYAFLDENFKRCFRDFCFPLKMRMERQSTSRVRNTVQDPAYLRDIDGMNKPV

CC(C)[C@@H](CN1CCCCC1)NC(=O)[C@H]1Cc2ccc(O)cc2CN1
Activity [1]: inactive
Activity [2]: inactive
Activity [3]: inactive

CC(C)[C@@H](CC1CCCCC1)NC(=O)[C@H]1Cc2ccc(O)cc2CN1
Activity [1]: inactive
Activity [2]: inactive
Activity [3]: inactive
Ke [4]: 640 nM
